According to patent publication US12102648B2, “Orally-bioavailable nucleoside analogs” (priority 2021, dated 2024):
Where two headings read alike, the source gives them in different places.

Assay: in vitro
Type: in vitro ADME
Settings: human
How it was run: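 Caco-2 monolayers cultured 19 days on inserts (TEER >600 […]); bidirectional A-to-B and B-to-A transport at 37° C over 90 min, samples quantified by LC/MS/MS. Papp, efflux ratio and recovery calculated; ER >2 flags potential efflux substrates.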

[1] = Caco-2 monolayer, apical to basolateral, 90-minute incubation, read-out: Papp, A-B
[2] = Caco-2 monolayer, basolateral to apical, 90-minute incubation, read-out: Papp, B-A
[3] = Caco-2 monolayer, ER>2 indicates potential efflux transporter substrate, read-out: ER (efflux ratio)

Compound	Papp A→B at 90 min (Caco-2) [×10⁻⁶ cm/s]	Papp B→A at 90 min (Caco-2) [×10⁻⁶ cm/s]	efflux ratio at 90 min (Caco-2)	Papp A→B at 90 min [1] [×10⁻⁶ cm/s]	Papp B→A at 90 min [2] [×10⁻⁶ cm/s]	efflux ratio at 90 min [3]
CC(C)[C@H](N)C(=O)Nc1ncnn2c([C@]3(C#N)O[C@H](CO)[C@@H](OC(=O)[C@@H](N)C(C)C)[C@H]3O)ccc12 [Compound 129, (2R,3S,4R,5R)-5-{4-[(2S)-2-amino-3-methylbutanamido]pyrrolo[2,1-f][1,2,4]triazin-7-yl}-5-cyano-4-hydroxy-2-(hydroxymethyl)oxolan-3-yl (2S)-2-amino-3-methylbutanoate]	0.03	0.02	0.7			
N#C[C@@]1(c2ccc3c(NC(=O)[C@@H](N)Cc4ccc(F)cc4)ncnn23)O[C@H](CO)[C@@H](OC(=O)CC2CCCCC2)[C@H]1O [Compound 137, (2R,3S,4R,5R)-5-(4-((S)-2-amino-3-(4-fluorophenyl)propanamido)pyrrolo[2,1-f][1,2,4]triazin-7-yl)-5-cyano-4-hydroxy-2-(hydroxymethyl)tetrahydrofuran-3-yl 2-cyclohexylacetate]	0.6	2.7	4.5			
CC(C)[C@H](N)C(=O)Nc1ncnn2c([C@]3(C#N)O[C@H](CO)[C@@H](OC(=O)CC4CCCCC4)[C@H]3O)ccc12 [Compound 139, (2R,3S,4R,5R)-5-(4-((S)-2-amino-3-methylbutanamido)pyrrolo[2,1-f][1,2,4]triazin-7-yl)-5-cyano-4-hydroxy-2-(hydroxymethyl)tetrahydrofuran-3-yl 2-cyclohexylacetate]	0.18	6.1	34			
CCCCCOC(=O)Nc1ncnn2c([C@]3(C#N)O[C@H](CO)[C@@H](OC(=O)Cc4ccccc4)[C@H]3O)ccc12 [Compound 141, (2R,3S,4R,5R)-5-cyano-4-hydroxy-2-(hydroxymethyl)-5-(4-(((pentyloxy)carbonyl)amino)pyrrolo[2,1-f][1,2,4]triazin-7-yl)tetrahydrofuran-3-yl 2-phenylacetate]				0.14	0.04	0.33
N#C[C@@]1(c2ccc3c(NC(=O)c4ccccc4)ncnn23)O[C@H](CO)[C@@H](OC(=O)Cc2ccccc2)[C@H]1O [Compound 143, (2R,3S,4R,5R)-5-(4-benzamidopyrrolo[2,1-f][1,2,4]triazin-7-yl)-5-cyano-4-hydroxy-2-(hydroxymethyl)tetrahydrofuran-3-yl 2-phenylacetate]				0.67	0.12	0.18
CC(C)[C@H](N)C(=O)Nc1ncnn2c([C@]3(C#N)O[C@H](CO)[C@@H](OC(=O)Cc4ccccc4)[C@H]3O)ccc12 [Compound 144, (2R,3S,4R,5R)-5-(4-((S)-2-amino-3-methylbutanamido)pyrrolo[2,1-f][1,2,4]triazin-7-yl)-5-cyano-4-hydroxy-2-(hydroxymethyl)tetrahydrofuran-3-yl 2-phenylacetate]				0.03	1.8	53
CNc1nc(N)nc2c1ncn2[C@@H]1O[C@H](COC(C)=O)[C@@H](O)[C@@]1(C)F [Compound 178, ((2R,3R,4R,5R)-5-(2-amino-6-(methylamino)-9H-purin-9-yl)-4-fluoro-3-hydroxy-4-methyltetrahydrofuran-2-yl)methyl acetate]	6.7	4.4	0.7			
CCC(=O)OC[C@H]1O[C@@H](n2cnc3c(NC)nc(N)nc32)[C@](C)(F)[C@@H]1O [Compound 180, ((2R,3R,4R,5R)-5-(2-amino-6-(methylamino)-9H-purin-9-yl)-4-fluoro-3-hydroxy-4-methyltetrahydrofuran-2-yl)methyl propionate]				4.6	7.6	1.6
CNc1nc(N)nc2c1ncn2[C@@H]1O[C@H](COC(C)=O)[C@@H](OC(=O)CC(C)C)[C@@]1(C)F [Compound 186, (2R,3R,4R,5R)-2-(acetoxymethyl)-5-(2-amino-6-(methylamino)-9H-purin-9-yl)-4-fluoro-4-methyltetrahydrofuran-3-yl 3-methylbutanoate]	19	7.2	0.38			
CNc1nc(N)nc2c1ncn2[C@@H]1O[C@H](COC(=O)C(C)C)[C@@H](OC(=O)CC(C)C)[C@@]1(C)F [Compound 187, (2R,3R,4R,5R)-5-(2-amino-6-(methylamino)-9H-purin-9-yl)-4-fluoro-2-((isobutyryloxy)methyl)-4-methyltetrahydrofuran-3-yl 3-methylbutanoate]	11	2.4	0.22			
CNc1nc(N)nc2c1ncn2[C@@H]1O[C@H](COC(C)=O)[C@@H](OC(=O)CC2CCCCC2)[C@@]1(C)F [Compound 194, (2R,3R,4R,5R)-2-(acetoxymethyl)-5-(2-amino-6-(methylamino)-9H-purin-9-yl)-4-fluoro-4-methyltetrahydrofuran-3-yl 2-cyclohexylacetate]	12	2.1	0.18			
CNc1nc(N)nc2c1ncn2[C@@H]1O[C@H](COC(=O)C(C)C)[C@@H](OC(=O)CC2CCCCC2)[C@@]1(C)F [Compound 195, ((2R,3R,4R,5R)-5-(2-amino-6-(methylamino)-9H-purin-9-yl)-3-(2-cyclohexylacetoxy)-4-fluoro-4-methyltetrahydrofuran-2-yl)methyl isobutyrate]	6.3	1.1	0.18			
CNc1nc(N)nc2c1ncn2[C@@H]1O[C@H](COC(C)=O)[C@@H](OC(=O)Cc2ccccc2)[C@@]1(C)F [Compound 210, (2R,3R,4R,5R)-2-(acetoxymethyl)-5-(2-amino-6-(methylamino)-9H-purin-9-yl)-4-fluoro-4-methyltetrahydrofuran-3-yl 2-phenylacetate]				15	5.8	0.38
CNc1nc(N)nc2c1ncn2[C@@H]1O[C@H](COC(=O)C(C)C)[C@@H](OC(=O)Cc2ccccc2)[C@@]1(C)F [Compound 211, ((2R,3R,4R,5R)-5-(2-amino-6-(methylamino)-9H-purin-9-yl)-4-fluoro-4-methyl-3-(2-phenylacetoxy)tetrahydrofuran-2-yl)methyl isobutyrate]				6.2	4.8	0.8
CNc1nc(N)nc2c1ncn2[C@@H]1O[C@H](COC(=O)CC2CCCCC2)[C@@H](OC(C)=O)[C@@]1(C)F [Compound 215, ((2R,3R,4R,5R)-3-acetoxy-5-(2-amino-6-(methylamino)-9H-purin-9-yl)-4-fluoro-4-methyltetrahydrofuran-2-yl)methyl 2-cyclohexylacetate]	9.3	1.6	0.18			
CNc1nc(N)nc2c1ncn2[C@@H]1O[C@H](COC(=O)Cc2ccccc2)[C@@H](OC(C)=O)[C@@]1(C)F [Compound 217, ((2R,3R,4R,5R)-3-acetoxy-5-(2-amino-6-(methylamino)-9H-purin-9-yl)-4-fluoro-4-methyltetrahydrofuran-2-yl)methyl 2-phenylacetate]				14	6.1	0.45
CCC(=O)OC[C@H]1O[C@@H](n2cnc3c(NC)nc(N)nc32)[C@](C)(F)[C@@H]1OC(C)=O [Compound 220, ((2R,3R,4R,5R)-3-acetoxy-5-(2-amino-6-(methylamino)-9H-purin-9-yl)-4-fluoro-4-methyltetrahydrofuran-2-yl)methyl propionate]	20	13	0.64			
CNc1nc(N)nc2c1ncn2[C@@H]1O[C@H](COC(=O)CC2CCCCC2)[C@@H](OC(=O)C(C)C)[C@@]1(C)F [Compound 223, (2R,3R,4R,5R)-5-[2-amino-6-(methylamino)purin-9-yl]-2-{[(2-cyclohexylacetyl)oxy]methyl}-4-fluoro-4-methyloxolan-3-yl 2-methylpropanoate]	20	6.9	0.34			
CNc1nc(N)nc2c1ncn2[C@@H]1O[C@H](COC(=O)C(C)C)[C@@H](OC(=O)C(C)C)[C@@]1(C)F [Compound 227, (2R,3R,4R,5R)-5-(2-amino-6-(methylamino)-9H-purin-9-yl)-4-fluoro-2-((isobutyryloxy)methyl)-4-methyltetrahydrofuran-3-yl isobutyrate]	8.5	3.2	0.4			
CCC(=O)O[C@@H]1[C@@H](COC(=O)C(C)C)O[C@@H](n2cnc3c(NC)nc(N)nc32)[C@]1(C)F [Compound 235, ((2R,3R,4R,5R)-5-(2-amino-6-(methylamino)-9H-purin-9-yl)-4-fluoro-4-methyl-3-(propionyloxy)tetrahydrofuran-2-yl)methyl isobutyrate]	11	4.5	0.4			
CCCCCCCCCCCCCCCCCCOCCOP(=O)(O)OC[C@H]1O[C@@H](n2cnc3c(NC)nc(N)nc32)[C@](C)(F)[C@@H]1O [Compound 254, ((2R,3R,4R,5R)-5-(2-amino-6-(methylamino)-9H-purin-9-yl)-4-fluoro-3-hydroxy-4-methyltetrahydrofuran-2-yl)methyl (2-(octadecyloxy)ethyl) hydrogen phosphate]	2.2	1.7	0.8			
CC(C)CC(=O)N[C@H](C(=O)OC[C@H]1O[C@@](C#N)(c2ccc3c(N)ncnn23)[C@H](O)[C@@H]1O)C(C)C [Compound 255, [(2R,3S,4R,5R)-5-{4-aminopyrrolo[2,1-f][1,2,4]triazin-7-yl}-5-cyano-3,4-dihydroxyoxolan-2-yl]methyl (2S)-3-methyl-2-(3-methylbutanamido)butanoate]	2.1	5.3	2.5			
